# Marks after values point to notes of the source that are not given here.
# What was measured:
# [1] = test system: mammalian DNA polymerase alpha; settings: cited from earlier work
# [2] = test system: cellular DNA polymerase beta; settings: cited from earlier work
# [3] = test system: viral reverse transcriptase; settings: cited from earlier work
# [4] = test system: cellular DNA polymerase gamma; settings: cited from earlier work
# HSV-1 [5] = assay: Antiviral activity against HSV-1 (second line); type: cell-based; settings: Human alphaherpesvirus 1; primary rabbit kidney cell cultures; second HSV-1 line; read-out: Minimal Inhibitory Concentration (required to reduce virus-induced cytopathogenicity by 50%)
# DNA and RNA viruses = assay: Antiviral activity against a variety of viruses (Table 3 overall); type: cell-based; settings: Table 3 note
# Source text: (§1) The antiviral activity of the dideoxynucleosides of the present invention against a variety of viruses were compared. The results, shown in Table 3, indicate that the compositions of the present invention are selectively effective against HIV virus.
# (§2) ^1 Required to reduce virusinduced cytopathogenicity by 50%.
# [6] = test system: PBM (peripheral blood mononuclear cells) stimulated with phytohaemagglutinin; assay: Immune reactivity of normal lymphocytes: PBM + PHA; type: cell-based; settings: 72 hours
# Parainfluenza Virus-3 = assay: Antiviral activity against Parainfluenza Virus-3; type: cell-based; settings: Vero; read-out: Minimal Inhibitory Concentration (required to reduce virus-induced cytopathogenicity by 50%)
# [7] = test system: HIV (HTLV-III/LAV), ATH8 cells; assay: Inhibition of cytopathic effect of HIV (HTLV-III/LAV) against ATH8 cells; type: cell-based, human immunodeficiency virus (HIV)
# [8] = test system: Vesicular Stomatitis Virus; assay: microbe, parasite or virus in culture; type: cell-based; settings: HeLa, read-out: Minimal Inhibitory Concentration (required to reduce virus-induced cytopathogenicity by 50%)
# [9] = test system: PBM (peripheral blood mononuclear cells) stimulated with pokeweed mitogen; assay: Immune reactivity of normal lymphocytes: PBM + PWM; type: cell-based; settings: 72 hours
# [10] = dog, in vivo
# HSV-1 [11] = assay: Antiviral activity against HSV-1 (first line); type: cell-based; settings: Human alphaherpesvirus 1; primary rabbit kidney cell cultures; first HSV-1 line; read-out: Minimal Inhibitory Concentration (required to reduce virus-induced cytopathogenicity by 50%)
# Polio Virus-1 = assay: organism not typed; type: cell-based; settings: HeLa, read-out: Minimal Inhibitory Concentration (required to reduce virus-induced cytopathogenicity by 50%)
# HTLV-III = assay: Antiviral activity against HTLV-III; type: cell-based, human immunodeficiency virus (HIV); settings: for IC50: Human immunodeficiency virus 1, ATH-8, T4+ human T cell (ATH8) cultures, read-out: Minimal Inhibitory Concentration (required to reduce virus-induced cytopathogenicity by 50%); for activity against HIV: Table 3 note
# Source text: as §1, §2
# ^5 Antiviral activity measured in T4+ human T cell (ATH8) cultures.
# Semliki Forest Virus = assay: Antiviral activity against Semliki Forest Virus; type: cell-based; settings: Vero cell cultures, read-out: Minimal Inhibitory Concentration (required to reduce virus-induced cytopathogenicity by 50%)
# Source text: as §1, §2
# (§3) ^4 Antiviral activity measured in Vero cell cultures.
# Coxsackie Virus B4 = assay: Antiviral activity against Coxsackie Virus B4; type: cell-based; settings: Enterovirus B, Hela cell cultures, read-out: Minimal Inhibitory Concentration (required to reduce virus-induced cytopathogenicity by 50%)
# Sindbis Virus = assay: Antiviral activity against Sindbis Virus; type: cell-based; settings: Vero cell cultures, read-out: Minimal Inhibitory Concentration (required to reduce virus-induced cytopathogenicity by 50%)
# Source text: as §1, §2, §3
# Reovirus-1 = assay: Antiviral activity against Reovirus-1; type: cell-based; settings: Vero cell cultures; read-out: Minimal Inhibitory Concentration (required to reduce virus-induced cytopathogenicity by 50%)
# [12] = test system: normal helper/inducer TM3 cells; assay: Immune reactivity of normal lymphocytes: tetanus toxoid-driven activation of clone TM3; type: cell-based; settings: 72 hours
# Experimental: There was tested the effects of the various 2',3'-dideoxynucleosides on the antigen-specific and lectin-induced reactivity of normal lymphocytes in vitro (Table 2). There was used a normal clone (TM3)of tetanus-toxoid specific helper/inducer T-cells to monitor the effects of the compounds on antigen-driven activation and normal circulating lymphocytes to monitor effects on pokeweed mitogen and phytohaemagglutinin-driven activation. Concentrations of these compounds, including those that were 10- to 20-fold higher than those necessary to block the in vitro infectivity and cytopathic effect of HIV (HTLV-III/LAV) left the in vitro immune reactivity of normal lymphocytes basically intact.
# ^2 5 × 10^4 normal helper/inducer TM3 cells were stimulated
# with tetanus toxoid (0.6 limiting flocculation units/ml) plus 10^5
# irradiated (4,000 rad) autologous peripheral blood mononuclear cells (PBM
# as a source of accessory cells and cultured for 72 hours in the presence
# or absence of the 2',3dideoxynucleoside. After exposure to 0.5 uCi^3
# Hthymidine or 1 uCi ^3 Huidine for the final 5 hours, cells were
# harvested onto glass fibers and the incorporated radioactivity was
# counted. Data are expressed as the arithmetic mean counts per minute
# (×10^3) ± 1 standard deviation triplicate determinations.
# Vaccinia = assay: microbe, parasite or virus in culture; type: cell-based; settings: Orthopoxvirus vaccinia, in Oryctolagus cuniculus, read-out: Minimal Inhibitory Concentration (required to reduce virus-induced cytopathogenicity by 50%)
# [13] = test system: HIV (HTLV-III/LAV) p24 gag protein, H9 cells; assay: Inhibition of infectivity and replication of HIV (p24 gag protein expression) in H9 cells; type: cell-based, human immunodeficiency virus (HIV)
# [14] = 10 uM, 3H-thymidine incorporation, mean ± 1 SD, triplicate
# [15] = 100 uM, 3H-thymidine incorporation, mean ± 1 SD, triplicate
# [16] = 1 uM, 3H-uridine incorporation, mean ± 1 SD, triplicate
# [17] = 10 uM, 3H-uridine incorporation, mean ± 1 SD, triplicate
# [18] = 200 uM, 3H-uridine incorporation
# [19] = 2,000 uM, 3H-uridine incorporation, mean ± 1 SD, triplicate
Compound,IC50 (HSV-1 [5]) [µM],"activation of PBM + PHA, mean counts per minute [6, 14]","activation of PBM + PHA, mean counts per minute [6, 15]",IC50 (Parainfluenza Virus-3) [µM],IC50 [8] [µM],"activation of PBM + PWM, mean counts per minute [9, 14]","activation of PBM + PWM, mean counts per minute [9, 15]",IC50 (HSV-1 [11]) [µM],IC50 (Polio Virus-1) [µM],IC50 (HTLV-III) [µM],IC50 (Semliki Forest Virus) [µM],IC50 (Coxsackie Virus B4) [µM],IC50 (Sindbis Virus) [µM],IC50 (Reovirus-1) [µM],"activation of clone TM3, mean counts per minute [12, 14]","activation of clone TM3, mean counts per minute [12, 15]",IC50 (Vaccinia) [µM],also measured
Nc1ncnc2c1ncn2[C@H]1CC[C@@H](COP(=O)(O)OP(=O)(O)OP(=O)(O)O)O1,–,–,–,–,–,–,–,–,–,–,–,–,–,–,–,–,–,inhibition of mammalian DNA polymerase alpha [1]: but not mammalian DNA polymerase alpha; inhibition of cellular DNA polymerase beta [2]: can inhibit; inhibition of viral reverse transcriptase [3]: can inhibit; inhibition of cellular DNA polymerase gamma [4]: can inhibit
Nc1nc2c(ncn2[C@H]2CC[C@@H](COP(=O)(O)OP(=O)(O)OP(=O)(O)O)O2)c(=O)[nH]1,–,–,–,–,–,–,–,–,–,–,–,–,–,–,–,–,–,inhibition of mammalian DNA polymerase alpha [1]: but not mammalian DNA polymerase alpha; inhibition of cellular DNA polymerase beta [2]: can inhibit; inhibition of viral reverse transcriptase [3]: can inhibit; inhibition of cellular DNA polymerase gamma [4]: can inhibit
"Nc1ncnc2c1ncn2[C@H]1CC[C@@H](CO)O1 [2',3'-dideoxyadenosine]",> 2000,289 ± 18 counts per minute (×10^3),314 ± 37 counts per minute (×10^3),> 2000,> 2000,63 ± 5 counts per minute (×10^3),57 ± 3 counts per minute (×10^3),> 2000,> 2000,5,> 2000,> 2000,> 2000,> 2000,86 ± 8 counts per minute (×10^3),67 ± 2 counts per minute (×10^3),> 2000,"activity against the broad spectrum of DNA and RNA viruses (DNA and RNA viruses): not active; anti-retroviral activity against HIV [7]: have anti-retroviral activity against HIV; oral bioavailability ([10]; pH 7): 41.6%; conversion of orally administered ddA to ddI ([10]; po): converted almost entirely to 2',3'-dideoxyinosine (ddI); activity against HIV (HTLV-III): active against HIV"
"Nc1ccn([C@H]2CC[C@@H](CO)O2)c(=O)n1 [2',3'-dideoxycytidine]",> 2000,–,–,> 2000,> 2000,–,–,> 2000,> 2000,0.3,> 2000,> 2000,> 2000,> 2000,–,–,> 2000,"activity against the broad spectrum of DNA and RNA viruses (DNA and RNA viruses): not active; activation of PBM + PHA, mean counts per minute [6, 16]: 101 ± 1 counts per minute (×10^3); activation of PBM + PHA, mean counts per minute [6, 17]: 86 ± 3 counts per minute (×10^3); activation of PBM + PWM, mean counts per minute [9, 16]: 23 ± 3 counts per minute (×10^3); activation of PBM + PWM, mean counts per minute [9, 17]: 15 ± 3 counts per minute (×10^3); activity against HIV (HTLV-III): active against HIV; activation of clone TM3, mean counts per minute [12, 16]: 13 ± 1 counts per minute (×10^3); activation of clone TM3, mean counts per minute [12, 17]: 8 ± 1 counts per minute (×10^3)"
"Nc1nc2c(ncn2[C@H]2CC[C@@H](CO)O2)c(=O)[nH]1 [2',3'-dideoxyguanosine]",–,350 ± 4 counts per minute (×10^3),469 ± 9 counts per minute (×10^3),–,–,73 ± 8 counts per minute (×10^3),62 ± 5 counts per minute (×10^3),–,–,–,–,–,–,–,66 ± 5 counts per minute (×10^3),77 ± 1 counts per minute (×10^3),–,–
"OC[C@@H]1CC[C@H](n2cnc3c(O)ncnc32)O1 [2',3'-dideoxyinosine]",–,298 ± 20 counts per minute (×10^3),355 ± 37 counts per minute (×10^3),–,–,61 ± 1 counts per minute (×10^3),62 ± 5 counts per minute (×10^3),–,–,–,–,–,–,–,62 ± 4 counts per minute (×10^3),81 ± 4 counts per minute (×10^3),–,anti-retroviral activity against HIV [7]: have anti-retroviral activity against HIV
"Cc1cn([C@H]2CC[C@@H](CO)O2)c(=O)[nH]c1=O [2',3'-dideoxythymidine]",> 2000,–,–,> 2000,> 2000,–,–,> 2000,> 2000,200,> 2000,> 2000,> 2000,> 2000,–,–,> 2000,"activation of PBM + PHA, mean counts per minute [6, 18]: 86 counts per minute (×10^3); activation of PBM + PHA, mean counts per minute [6, 19]: 77 counts per minute (×10^3); concentration required to mediate an anti-viral effect (p24 gag expression) [13]: relatively higher concentrations; resumption of viral replication ([13]; day 10 of culture): allowed a resumption of viral replication by day 10 of culture; concentration required to exert a protective effect ([7]; ATH8 cells): relatively high concentrations; capacity to nullify the cytopathic effect of the virus ([7]; day 10 of culture, ATH8 cells): lost on day 10 of the culture; activation of PBM + PWM, mean counts per minute [9, 18]: 31 counts per minute (×10^3); activation of PBM + PWM, mean counts per minute [9, 19]: 31 counts per minute (×10^3); activation of clone TM3, mean counts per minute [12, 18]: 9 counts per minute (×10^3); activation of clone TM3, mean counts per minute [12, 19]: 9 counts per minute (×10^3)"
O=c1ccn([C@H]2CC[C@@H](CO)O2)c(=O)[nH]1 [Dideoxyuridine],> 2000,–,–,> 2000,> 2000,–,–,> 2000,> 2000,> 100,> 2000,> 2000,> 2000,> 2000,–,–,> 2000,–

# Reference: US5616566A, “Method of inhibiting HIV replication with 2',3'-dideoxyadenosine” (The United States of America as represented by the …, priority 1993, dated 1997)
